Laboratory results reported in US20230219904A1 (SYNGENTA CROP PROTECTION AG, priority 2020, published 2023).

Assays:
Format in all cases: in vivo
Settings in all cases: evaluated after 13 days
[1] = tested on: Abutilon theophrasti (ABUTH); test: Pre-emergence herbicidal glasshouse test (Table B1)
Method: (§1) Seeds of a variety of test species are sown in standard soil in pots (Lolium perenne (LOLPE), Amaranthus retoflexus (AMARE), Abutilon theophrasti (ABUTH), Setaria faberi (SETFA), Echinochloa crus-galh (ECHCG), Ipomoea hederacea (IPOHE)). After cultivation for one day (pre-emergence) or after 8 days cultivation (post-emergence) under controlled conditions in a glasshouse (at 24/16° C., day/night; 14 hours light; 65% humidity), the plants are sprayed with an aqueous spray solution derived from the formulation of the technical active ingredient in acetone/water (50:50) solution containing 0.5% Tween 20 (polyoxyethelyene sorbitan monolaurate, CAS RN 9005-64-5). Compounds are applied at 500 g/h unless otherwise indicated. The test plants are then grown in a glasshouse under controlled conditions in a glasshouse (at 24/16° C., day/night; 14 hours light; 65% humidity) and watered twice daily. After 13 days for pre and post-emergence, the test is evaluated for the percentage damage caused to the plant. The biological activities are shown in the following table on a five-point scale (5=80-100%; 4=60-79%; 3=40-59%; 2=20-39%; 1=0-19%).

[2] = tested on: Amaranthus retoflexus (AMARE); test: as above
Method: as §1

[3] = tested on: Echinochloa crus-galh (ECHCG); test: as above
Method: as §1

[4] = tested on: Ipomoea hederacea (IPOHE); test: as above
Method: as §1

[5] = tested on: Setaria faberi (SETFA); test: as above
Method: as §1

[6] = tested on: Amaranthus retoflexus (AMARE); test: Post-emergence herbicidal glasshouse test (Table B1)
Method: as §1

[7] = tested on: Echinochloa crus-galh (ECHCG); test: as above
Method: as §1

[8] = tested on: Ipomoea hederacea (IPOHE); test: as above
Method: as §1

[9] = tested on: Setaria faberi (SETFA); test: as above
Method: as §1

| SMILES | PRE Application ABUTH, percentage damage on five-point scale ([1]; applied at 125 g/ha) | PRE Application AMARE, percentage damage on five-point scale ([2]; applied at 125 g/ha) | PRE Application ECHCG, percentage damage on five-point scale ([3]; applied at 125 g/ha) | PRE Application IPOHE, percentage damage on five-point scale ([4]; applied at 125 g/ha) | PRE Application SETFA, percentage damage on five-point scale ([5]; applied at 125 g/ha) | POST Application AMARE, percentage damage on five-point scale ([6]; applied at 125 g/ha) | POST Application ECHCG, percentage damage on five-point scale ([7]; applied at 125 g/ha) | POST Application IPOHE, percentage damage on five-point scale ([8]; applied at 125 g/ha) | POST Application SETFA, percentage damage on five-point scale ([9]; applied at 125 g/ha) | PRE Application ABUTH, percentage damage on five-point scale ([1]; applied at 500 g/h) | PRE Application AMARE, percentage damage on five-point scale ([2]; applied at 500 g/h) | PRE Application ECHCG, percentage damage on five-point scale ([3]; applied at 500 g/h) | PRE Application IPOHE, percentage damage on five-point scale ([4]; applied) | PRE Application SETFA, percentage damage on five-point scale ([5]; applied at 500 g/h) | POST Application AMARE, percentage damage on five-point scale ([6]; applied at 500 g/h) | POST Application ECHCG, percentage damage on five-point scale ([7]; applied at 500 g/h) | POST Application IPOHE, percentage damage on five-point scale ([8]; applied at 500 g/h) | POST Application SETFA, percentage damage on five-point scale ([9]; applied at 500 g/h) |
| --- | --- | --- | --- | --- | --- | --- | --- | --- | --- | --- | --- | --- | --- | --- | --- | --- | --- | --- |
| CCn1nnnc1NC(=O)c1ccc(OC(F)(F)F)c(NC(=O)C(C)OC)c1Cl (stereo not drawn) [Compound 1.071] | 5 (5=80-100%) | 5 (5=80-100%) | 5 (5=80-100%) | 5 (5=80-100%) | 5 (5=80-100%) | 4 (4=60-79%) | 5 (5=80-100%) | 4 (4=60-79%) | 5 (5=80-100%) |  |  |  |  |  |  |  |  |  |
| CCCOCC(=O)Nc1c(OC(F)(F)F)ccc(C(=O)Nc2nnnn2C)c1Cl [Compound 1.062] |  | 5 (5=80-100%) | 2 (2=20-39%) | 4 (4=60-79%) | 3 (3=40-59%) | 5 (5=80-100%) | 4 (4=60-79%) | 4 (4=60-79%) | 5 (5=80-100%) |  |  |  |  |  |  |  |  |  |
| Cc1nc(C)c(C(=O)Nc2c(OC(F)F)ccc(C(=O)Nc3nnnn3C)c2Cl)s1 [Compound 1.042] | 4 (4=60-79%) | 5 (5=80-100%) | 5 (5=80-100%) | 5 (5=80-100%) | 5 (5=80-100%) | 5 (5=80-100%) | 5 (5=80-100%) | 5 (5=80-100%) | 5 (5=80-100%) |  |  |  |  |  |  |  |  |  |
| Cn1nnnc1NC(=O)c1ccc(OC(F)(F)C(F)F)c(NC(=O)C2CC2)c1Cl [Compound 1.110] |  |  |  |  |  |  |  |  |  | 3 (3=40-59%) | 5 (5=80-100%) | 5 (5=80-100%) | 1 (1=0-19%) | 5 (5=80-100%) | 5 (5=80-100%) | 5 (5=80-100%) | 5 (5=80-100%) | 5 (5=80-100%) |
| COc1ccccc1C(=O)Nc1c(OC(F)(F)F)ccc(C(=O)Nc2nnnn2C)c1Cl [Compound 1.056] | 5 (5=80-100%) | 3 (3=40-59%) | 1 (1=0-19%) |  | 3 (3=40-59%) | 4 (4=60-79%) | 4 (4=60-79%) | 4 (4=60-79%) | 4 (4=60-79%) |  |  |  |  |  |  |  |  |  |
| Cc1cc(C(=O)Nc2c(OC(F)(F)F)ccc(C(=O)Nc3nnnn3C)c2Cl)nn1C [Compound 1.046] | 5 (5=80-100%) | 5 (5=80-100%) | 5 (5=80-100%) | 5 (5=80-100%) | 5 (5=80-100%) | 5 (5=80-100%) | 5 (5=80-100%) | 5 (5=80-100%) | 5 (5=80-100%) |  |  |  |  |  |  |  |  |  |
| CC(C)OCC(=O)Nc1c(OC(F)(F)F)ccc(C(=O)Nc2nnnn2C)c1Cl [Compound 1.064] | 5 (5=80-100%) | 5 (5=80-100%) | 3 (3=40-59%) | 4 (4=60-79%) | 4 (4=60-79%) | 4 (4=60-79%) |  | 4 (4=60-79%) | 4 (4=60-79%) |  |  |  |  |  |  |  |  |  |
| Cc1nc(C(=O)Nc2c(OC(F)F)ccc(C(=O)Nc3nnnn3C)c2Cl)cs1 [Compound 1.038] | 5 (5=80-100%) | 5 (5=80-100%) | 5 (5=80-100%) | 5 (5=80-100%) | 4 (4=60-79%) | 4 (4=60-79%) |  | 4 (4=60-79%) | 4 (4=60-79%) |  |  |  |  |  |  |  |  |  |
| CCn1nnnc1NC(=O)c1ccc(OC(F)F)c(NC(=O)c2cc(OC)ccn2)c1Cl [Compound 1.080] | 1 (1=0-19%) | 4 (4=60-79%) | 1 (1=0-19%) | 2 (2=20-39%) | 1 (1=0-19%) | 4 (4=60-79%) |  | 4 (4=60-79%) | 4 (4=60-79%) |  |  |  |  |  |  |  |  |  |
| CCC(=O)Nc1c(OC(F)(F)C(F)F)ccc(C(=O)Nc2nnnn2C)c1Cl [Compound 1.109] |  |  |  |  |  |  |  |  |  | 5 (5=80-100%) | 5 (5=80-100%) | 4 (4=60-79%) | 5 (5=80-100%) | 4 (4=60-79%) | 5 (5=80-100%) |  | 5 (5=80-100%) | 5 (5=80-100%) |
| CCOCC(=O)Nc1c(OC(F)(F)F)ccc(C(=O)Nc2nnnn2C)c1Cl [Compound 1.066] | 5 (5=80-100%) | 5 (5=80-100%) | 5 (5=80-100%) | 5 (5=80-100%) | 4 (4=60-79%) | 4 (4=60-79%) |  | 4 (4=60-79%) | 4 (4=60-79%) |  |  |  |  |  |  |  |  |  |
| Cn1nnnc1NC(=O)c1ccc(OC(F)F)c(NC(=O)c2cc(Cl)sc2Cl)c1Cl [Compound 1.041] | 5 (5=80-100%) | 2 (2=20-39%) | 3 (3=40-59%) | 2 (2=20-39%) | 2 (2=20-39%) | 3 (3=40-59%) |  | 3 (3=40-59%) | 3 (3=40-59%) |  |  |  |  |  |  |  |  |  |
| CCn1nnnc1NC(=O)c1ccc(OC(F)(F)F)c(NC(=O)CC(F)(F)F)c1Cl [Compound 1.068] | 5 (5=80-100%) | 5 (5=80-100%) | 5 (5=80-100%) | 3 (3=40-59%) | 5 (5=80-100%) | 4 (4=60-79%) |  | 4 (4=60-79%) | 5 (5=80-100%) |  |  |  |  |  |  |  |  |  |
| Cn1nnnc1NC(=O)c1ccc(OC(F)F)c(NC(=O)c2ncccc2Cl)c1Cl [Compound 1.092] | 5 (5=80-100%) | 5 (5=80-100%) |  | 3 (3=40-59%) | 5 (5=80-100%) | 3 (3=40-59%) |  | 4 (4=60-79%) | 4 (4=60-79%) |  |  |  |  |  |  |  |  |  |
| Cn1nnnc1NC(=O)c1ccc(OC(F)(F)F)c(NC(=O)C(C)(F)F)c1Cl [Compound 1.061] |  | 5 (5=80-100%) | 3 (3=40-59%) | 3 (3=40-59%) | 3 (3=40-59%) | 5 (5=80-100%) | 4 (4=60-79%) | 4 (4=60-79%) | 5 (5=80-100%) |  |  |  |  |  |  |  |  |  |
